Where two headings read alike, the source gives them in different places.
Legend:
[1] = log P by HPLC on reversed-phase column (C18), EEC directive 79/831 Annex V.A8; assay type: physicochemical; details: for log p: data refer to the E isomer
Procedure: The log P values reported in the tables and Preparation Examples above were determined in accordance with EEC directive 79/831 Annex V.A8 by HPLC (High Performance Liquid Chromatography) using a reversed-phase column (C18). Temperature 43° C. The calibration is effected with unbranched alkan-2-ones (having 3 to 16 carbon atoms), for which the log P values are known.

Phaedon cochleariae = Phaedon cochleariae - spray test (PHAECO); assay type: in vivo; details: application rate 100 g/ha, Chinese cabbage leaf disks
Procedure: Phaedon cochleariae—Spray Test (PHAECO)
(§1) Solvent: 78.0 parts by weight of acetone • • 1.5 parts by weight of dimethylformamide
(§2) Emulsifier: 0.5 parts by weight of alkylaryl polyglycol ether
(§3) To produce a suitable active compound preparation, 1 part by weight of active compound is mixed with the stated amounts of solvent and emulsifier, and the concentrate is diluted with emulsifier-containing water to the desired concentration.
After the desired period of time, the efficacy in % is determined. 100% means that all the beetle larvae have been killed; 0% means that no beetle larvae have been killed.

Spodoptera frugiperda = Spodoptera frugiperda - spray test (SPODFR); assay type: in vivo; details: application rate 100 g/ha, maize leaf disks
Procedure: Spodoptera frugiperda—Spray Test (SPODFR)
as §1, §2, §3
Leaf disks of maize (Zea mays) are sprayed with an active compound preparation of the desired concentration and, after drying, populated with caterpillars of the armyworm (Spodoptera frugiperda).
After the desired period of time, the efficacy in % is determined. 100% means that all the caterpillars have been killed; 0% means that no caterpillars have been killed.

Myzus persicae = Myzus persicae - spray test (MYZUPE); assay type: in vivo; details: application rate 100 g/ha, Chinese cabbage leaf disks
Procedure: Myzus persicae—Spray Test (MYZUPE)
Solvent: 78 parts by weight of acetone • • 1.5 parts by weight of dimethylformamide
as §2, §3
Disks of Chinese cabbage leaves (Brassica pekinensis) infested by all stages of the green peach aphid (Myzus persicae) are sprayed with an active compound preparation of the desired concentration.
After the desired period of time, the efficacy in % is determined. 100% means that all the aphids have been killed; 0% means that none of the aphids have been killed.

[2] = Table A, HPLC reversed-phase C18, 43° C.
[3] = Table C, HPLC reversed-phase C18, 43° C.
[4] = reversed-phase HPLC column (C18), HPLC-MS data in the preparation text, HPLC reversed-phase C18, 43° C., read-out: log P
[5] = Table B, HPLC reversed-phase C18, 43° C.

CON=Cc1cc(C)c(NC(=O)c2cc(C(F)(F)F)nn2-c2ncccc2Cl)c(C(=O)NNC(=O)OC(C)C)c1 [A-18]
log p [1, 2]: 3.17
efficacy (beetle larvae killed) (Phaedon cochleariae): 100%
efficacy (caterpillars killed) (Spodoptera frugiperda): 100%

CON=Cc1cc(C)c(NC(=O)c2cc(OCC(F)F)nn2-c2ncccc2Cl)c(C(=O)NC(C)C2CC2)c1 (stereo not shown) [C-18]
log p [1, 3]: 3.39
efficacy (aphids killed) (Myzus persicae): 90%
efficacy (caterpillars killed) (Spodoptera frugiperda): 100%

CON=Cc1cc(C)c(NC(=O)c2cc(Br)nn2-c2ncccc2Cl)c(C(=O)N(C)NC(=O)OC(C)C)c1 [A-16]
log p [1, 2]: 3.28
efficacy (caterpillars killed) (Spodoptera frugiperda): 100%

CC(C)Oc1cc(C(=O)O)n(-c2ncccc2Cl)n1 [1-(3-chloropyridin-2-yl)-3-isopropoxy-1H-pyrazole-5-carboxylic acid]
chromatographic logP [1, 4]: 1.76

CON=Cc1cc(C)c(NC(=O)c2cc(C(F)(F)F)nn2-c2ncccc2Cl)c(C(=O)N(C)NC(C)=O)c1 [A-30]
log p [1, 2]: 2.75
efficacy (caterpillars killed) (Spodoptera frugiperda): 100%

CO/N=C/c1cc(C)c(NC(=O)c2cc(OC(F)F)nn2-c2ncccc2Cl)c(C(=O)NN)c1 [1-(3-Chloropyridin-2-yl)-3-(difluoromethoxy)-N-{2-(hydrazinocarbonyl)-4-[(E)-(methoxyimino)methyl]-6-methylphenyl}-1H-pyrazole-5-carboxamide]
chromatographic logP ([1]; log P): 2.12

O=C(O)c1cc(CF)nn1-c1ncccc1Cl [1-(3-Chloropyridin-2-yl)-3-(fluoromethyl)-1H-pyrazole-5-carboxylic acid]
chromatographic logP [1, 4]: 1.03

CON=Cc1cc(C)c(NC(=O)c2cc(OC)nn2-c2ncccc2Cl)c(C(=O)NNC(=O)OC)c1 (mixture of isomers) [A-40]
log p [1, 2]: 2.45
efficacy (aphids killed) (Myzus persicae): 90%
efficacy (caterpillars killed) (Spodoptera frugiperda): 100%

CON=Cc1cc(C)c(NC(=O)c2cc(C(F)(F)F)nn2-c2ncccc2Cl)c(C(=O)NC2CS(=O)(=O)C2)c1 (mixture of isomers) [B-04]
log p [1, 5]: 2.78
efficacy (aphids killed) (Myzus persicae): 90%
efficacy (caterpillars killed) (Spodoptera frugiperda): 100%

CO/N=C/c1cc(C)c(N)c(C(=O)O)c1 [VIII-1, 2-Amino-5-[(E)-(methoxyimino)methyl]-3-methylbenzoic acid]
chromatographic logP [1, 4]: 1.73

CCOC(=O)c1cc(OCC(F)F)nn1-c1ncccc1Cl [Ethyl 1-(3-chloropyridin-2-yl)-3-(2,2-difluoroethoxy)-1H-pyrazole-5-carboxylate]
chromatographic logP [1, 4]: 2.74

CON=Cc1cc(C)c(NC(=O)c2cc(OC(C)C)nn2-c2ncccc2Cl)c(C(=O)NC2COC2)c1 (mixture of isomers) [B-07]
log p [1, 5]: 2.57
efficacy (caterpillars killed) (Spodoptera frugiperda): 100%

O=C(O)c1cc(OCC(F)F)nn1-c1ncccc1Cl [1-(3-Chloropyridin-2-yl)-3-(2,2-difluoroethoxy)-1H-pyrazole-5-carboxylic acid]
chromatographic logP [1, 4]: 1.59

CON=Cc1cc(C)c2nc(-c3cc(OCC(F)F)nn3-c3ncccc3Cl)oc(=O)c2c1 [2-[1-(3-Chloropyridin-2-yl)-3-(2,2-difluoroethoxy)-1H-pyrazol-5-yl]-8-methyl-4-oxo-4H-3,1-benzoxazine-6-carbaldehyde O-methyl oxime]
chromatographic logP [1, 4]: 3.92

CON=Cc1cc(C)c(NC(=O)c2cc(OCC(F)F)nn2-c2ncccc2Cl)c(C(=O)N(C)C)c1 [C-38]
log p [1, 3]: 2.61
efficacy (caterpillars killed) (Spodoptera frugiperda): 100%

CON=Cc1cc(C)c(NC(=O)c2cc(CF)nn2-c2ncccc2Cl)c(C(=O)N(C)C)c1 [C-55]
log p [1, 3]: 2.19
efficacy (caterpillars killed) (Spodoptera frugiperda): 100%

CON=Cc1cc(C)c(NC(=O)c2cc(Br)nn2-c2ncccc2Cl)c(C(=O)N(C)NC(C)=O)c1 [A-14]
log p [1, 2]: 2.31
efficacy (aphids killed) (Myzus persicae): 90%
efficacy (caterpillars killed) (Spodoptera frugiperda): 100%

CON=Cc1cc(C)c2nc(-c3cc(OC(F)F)nn3-c3ncccc3Cl)oc(=O)c2c1 [2-[1-(3-Chloropyridin-2-yl)-3-(difluoromethoxy)-1H-pyrazol-5-yl]-8-methyl-4-oxo-4H-3,1-benzoxazine-6-carbaldehyde O-methyl oxime]
chromatographic logP [1, 4]: 3.93

C=CCOC(=O)NN(C)C(=O)c1cc(C=NOC)cc(C)c1NC(=O)c1cc(C(F)(F)F)nn1-c1ncccc1Cl [A-28]
log p [1, 2]: 3.41
efficacy (caterpillars killed) (Spodoptera frugiperda): 100%

CON=Cc1cc(C)c(NC(=O)c2cc(CF)nn2-c2ncccc2Cl)c(C(=O)NC2COC2)c1 (mixture of isomers) [B-12]
log p [1, 5]: 2.04
efficacy (beetle larvae killed) (Phaedon cochleariae): 100%

Cc1cc(C=O)cc(C(=O)O)c1N [IX-1, 2-Amino-5-formyl-3-methylbenzoic acid]
chromatographic logP [1, 4]: 1.02

CON=Cc1cc(C)c(NC(=O)c2cc(Br)nn2-c2ncccc2Cl)c(C(=O)NNC(=O)Oc2ccccc2)c1 [A-15]
log p [1, 2]: 3.03
efficacy (aphids killed) (Myzus persicae): 90%
efficacy (caterpillars killed) (Spodoptera frugiperda): 100%

C#CCNC(=O)c1cc(C=NOC)cc(C)c1NC(=O)c1cc(OCC(F)F)nn1-c1ncccc1Cl [C-52]
log p [1, 3]: 2.78
efficacy (aphids killed) (Myzus persicae): 90%
efficacy (caterpillars killed) (Spodoptera frugiperda): 100%

O=C(O)c1cc(OCc2ccc(C(F)(F)F)nc2)nn1-c1ncccc1Cl [1-(3-chloropyridin-2-yl)-3-{[6-(trifluoromethyl)pyridin-3-yl]methoxy}-1H-pyrazole-5-carboxylic acid]
chromatographic logP [1, 4]: 1.59

CON=Cc1cc(C)c(NC(=O)c2cc(OCC(F)F)nn2-c2ncccc2Cl)c(C(=O)NC2COC2)c1 (mixture of isomers) [B-09]
log p [1, 5]: 2.44
efficacy (aphids killed) (Myzus persicae): 100%
efficacy (caterpillars killed) (Spodoptera frugiperda): 100%

CCOC(=O)NN(C)C(=O)c1cc(C=NOC)cc(C)c1NC(=O)c1cc(C(F)(F)F)nn1-c1ncccc1Cl [A-24]
log p [1, 2]: 3.31
efficacy (caterpillars killed) (Spodoptera frugiperda): 100%

CON=Cc1cc(C)c(NC(=O)c2cc(Br)nn2-c2ncccc2Cl)c(C(=O)N(NC(C)=O)C(C)=O)c1 [A-11]
log p [1, 2]: 2.67
efficacy (aphids killed) (Myzus persicae): 100%
efficacy (caterpillars killed) (Spodoptera frugiperda): 100%

CON=Cc1cc(C)c(NC(=O)c2cc(Br)nn2-c2ncccc2Cl)c(C(=O)N(NS(C)(=O)=O)S(C)(=O)=O)c1 [A-12]
log p [1, 2]: 2.99
efficacy (caterpillars killed) (Spodoptera frugiperda): 100%

C=CCOC(=O)NN(C)C(=O)c1cc(C=NOC)cc(C)c1NC(=O)c1cc(Br)nn1-c1ncccc1Cl [A-07]
log p [1, 2]: 3.12
efficacy (caterpillars killed) (Spodoptera frugiperda): 100%

COCCOC(=O)NN(C)C(=O)c1cc(C=NOC)cc(C)c1NC(=O)c1cc(C(F)(F)F)nn1-c1ncccc1Cl [A-27]
log p [1, 2]: 3.05
efficacy (caterpillars killed) (Spodoptera frugiperda): 100%

CCOC(=O)NN(C)C(=O)c1cc(C=NOC)cc(C)c1NC(=O)c1cc(Br)nn1-c1ncccc1Cl [A-10]
log p [1, 2]: 2.97
efficacy (aphids killed) (Myzus persicae): 90%
efficacy (caterpillars killed) (Spodoptera frugiperda): 100%

CON=Cc1cc(C)c(NC(=O)c2cc(C(F)F)nn2-c2ncccc2Cl)c(C(=O)N(C)C)c1 [C-61]
log p [1, 3]: 2.47
efficacy (caterpillars killed) (Spodoptera frugiperda): 100%

CON=Cc1cc(C)c(NC(=O)c2cc(Br)nn2-c2ncccc2Cl)c(C(=O)N(C)NC(=O)Oc2ccccc2)c1 [A-05]
log p [1, 2]: 3.46
efficacy (aphids killed) (Myzus persicae): 100%
efficacy (caterpillars killed) (Spodoptera frugiperda): 100%

COCCOC(=O)NN(C)C(=O)c1cc(C=NOC)cc(C)c1NC(=O)c1cc(Br)nn1-c1ncccc1Cl [A-13]
log p [1, 2]: 2.72
efficacy (aphids killed) (Myzus persicae): 90%
efficacy (caterpillars killed) (Spodoptera frugiperda): 100%

CCOc1cc(C(=O)O)n(-c2ncccc2Cl)n1 [1-(3-chloropyridin-2-yl)-3-ethoxy-1H-pyrazole-5-carboxylic acid]
chromatographic logP [1, 4]: 1.47

CON=Cc1cc(C)c(NC(=O)c2cc(OCC(F)F)nn2-c2ncccc2Cl)c(C(=O)NNC(=O)OC)c1 (mixture of isomers) [A-37]
log p [1, 2]: 2.37
efficacy (aphids killed) (Myzus persicae): 100%
efficacy (caterpillars killed) (Spodoptera frugiperda): 100%

COCC(C)NC(=O)c1cc(C=NOC)cc(C)c1NC(=O)c1cc(OCC(F)F)nn1-c1ncccc1Cl (stereo not shown) [C-39]
log p [1, 3]: 2.93
efficacy (aphids killed) (Myzus persicae): 100%
efficacy (caterpillars killed) (Spodoptera frugiperda): 100%

COC(=O)c1cc(CF)nn1-c1ncccc1Cl [Methyl 1-(3-chloropyridin-2-yl)-3-(fluoromethyl)-1H-pyrazole-5-carboxylate]
chromatographic logP [1, 4]: 1.9

CON=Cc1cc(C)c(NC(=O)c2cc(OC)nn2-c2ncccc2Cl)c(C(=O)N(C)C)c1 [C-40]
log p [1, 3]: 2.16

COCC(C)NC(=O)c1cc(C=NOC)cc(C)c1NC(=O)c1cc(CF)nn1-c1ncccc1Cl (stereo not shown) [C-54]
log p [1, 3]: 2.47
efficacy (aphids killed) (Myzus persicae): 90%
efficacy (caterpillars killed) (Spodoptera frugiperda): 100%

CON=Cc1cc(C)c(NC(=O)c2cc(Br)nn2-c2ncccc2Cl)c(C(=O)NNS(C)(=O)=O)c1 [A-09]
log p [1, 2]: 2.30
efficacy (aphids killed) (Myzus persicae): 90%
efficacy (caterpillars killed) (Spodoptera frugiperda): 100%
